# Test results: US10174053B2, “2 substituted cephem compounds” (Glaxo Group Limited, priority 2012, dated 2019)
# What was measured:
# Test in all cases: In vitro antimicrobial activity, MIC by broth microdilution (CLSI)
# Type in all cases: cell-based
# A. baumannii JMI2346 = conditions: Acinetobacter baumannii, JMI2346; OXA-51, TEM, ESBL and OXA-type carbapenemase producing strain; 5×10^5 cfu/mL; cation-adjusted Iso-Sensitest broth containing human Apo-transferrin; read-out: Minimum Inhibitory Concentration (MIC) A. baumannii JMI:2346
# Description: (§1) Compound (I) of the invention was evaluated for in vitro antimicrobial activity thereof.
# (§2) Measurement of Minimum Inhibitory Concentration (MIC: μg/mL) was conducted according to CLSI (Clinical and Laboratory Standards Institute) method, and the amount of bacteria for inoculation was 5×10^5 cfu/mL, and cation-adjusted Iso-Sensitest broth containing human Apo-transferrin was used as a test medium, and the experiment was conducted using broth microdilution method. The bacteria used are listed below.
# A. baumannii JMI7 = conditions: Acinetobacter baumannii, JMI7; PER-1, OXA-23, 51, ESBL and OXA-type carbapenemase producing strain; 5×10^5 cfu/mL; cation-adjusted Iso-Sensitest broth containing human Apo-transferrin; read-out: Minimum Inhibitory Concentration (MIC) A. baumannii JMI:7
# Description: as §1, §2
# E. Coli JMI1890 = conditions: Escherichia coli; PER-1, TEM-1, ESBL producing strain; 5×10^5 cfu/mL; cation-adjusted Iso-Sensitest broth containing human Apo-transferrin; read-out: Minimum Inhibitory Concentration (MIC) E. Coli JMI:1890
# Description: as §1, §2
# K. pneumoniae SR01358 = conditions: Klebsiella pneumoniae, SR01358; KPC-2, ESBL and KPC-type carbapenemase producing strain; 5×10^5 cfu/mL; cation-adjusted Iso-Sensitest broth containing human Apo-transferrin; read-out: Minimum Inhibitory Concentration (MIC) K. pneumoniae SR01358
# Description: as §1, §2
SMILES,MIC (A. baumannii JMI2346) [µg/mL],MIC (A. baumannii JMI7) [µg/mL],MIC (E. Coli JMI1890) [µg/mL],MIC (K. pneumoniae SR01358) [µg/mL]
C[C@@H]1S[C@@H]2[C@H](NC(=O)/C(=N\OC(C)(C)C(=O)[O-])c3csc(N)n3)C(=O)N2C(C(=O)O)=C1C[N+]12CCC(CNC(=O)/C(=N\O)c3ccc(O)c(O)c3Cl)(CC1)CC2 [Compound I-94],4,1,0.5,0.063
C[C@@H]1S[C@@H]2[C@H](NC(=O)/C(=N\OC(C)(C)C(=O)[O-])c3csc(N)n3)C(=O)N2C(C(=O)O)=C1C[N+]1(CCNC(=O)c2ccc(O)c(O)c2Cl)CCCCC1 [Compound I-43],4,1,0.5,0.063
C[C@@H]1S[C@@H]2[C@H](NC(=O)/C(=N\OC(C)(C)C(=O)[O-])c3csc(N)n3)C(=O)N2C(C(=O)O)=C1C[N+]1(CCNC(=O)c2ccc(O)c(O)c2Cl)CCCC1 [Compound I-52],4,1,0.25,≤ 0.031
C[C@@H]1S[C@@H]2[C@H](NC(=O)/C(=N\OC(C)(C)C(=O)[O-])c3csc(N)n3)C(=O)N2C(C(=O)[O-])=C1C[N@+]1(C)[C@@H]2CC[C@H]1C[C@@H](NC(=O)C(=O)c1cc(O)c(O)c(F)c1)C2.[Na+] [Compound I-83],2,0.5,0.063,≤ 0.031
CC[N+](CC)(CCNC(=O)c1ccc(O)c(O)c1Cl)CC1=C(C(=O)O)N2C(=O)[C@@H](NC(=O)/C(=N\OC(C)(C)C(=O)[O-])c3csc(N)n3)[C@H]2S[C@H]1C [Compound I-37],4,1,0.5,0.125
C[C@@H]1S[C@@H]2[C@H](NC(=O)/C(=N\OC(C)(C)C(=O)[O-])c3csc(N)n3)C(=O)N2C(C(=O)O)=C1C[N+]12CCC(Cn3[nH]c(=O)c4cc(O)c(O)cc4c3=O)(CC1)CC2 [Compound I-122],2,0.5,0.25,≤ 0.031
"C[C@@H]1S[C@@H]2[C@H](NC(=O)/C(=N\OC(C)(C)C(=O)[O-])c3csc(N)n3)C(=O)N2C(C(=O)[O-])=C1C[N+]12CCC(CC1)N(C(=O)c1c[nH]c3cc(O)c(O)c(Cl)c3c1=O)CC2.[Na+] [Compound I-177, (4S,6R,7R)-7-((Z)-2-(2-aminothiazol-4-yl)-2-(((2-carboxypropan-2-yl)oxy)imino)acetamido)-3-((4-(5-chloro-6,7-dihydroxy-4-oxo-1,4-dihydroquinoline-3-carbonyl)-1,4-diazabicyclo[3.2.2]nonan-1-ium-1-yl)methyl)-4-methyl-8-oxo-5-thia-1-azabicyclo [4.2.0]oct-2-ene-2-carboxylate, Sodium salt]",0.5,0.25,0.063,≤ 0.031
CO/N=C(\C(=O)NCC12CC[N+](CC3=C(C(=O)O)N4C(=O)[C@@H](NC(=O)/C(=N\OC(C)(C)C(=O)[O-])c5csc(N)n5)[C@H]4S[C@H]3C)(CC1)C2)c1ccc(O)c(O)c1Cl [Compound I-104],1,1,0.125,≤ 0.031
C[C@@H]1S[C@@H]2[C@H](NC(=O)/C(=N\OC(C)(C)C(=O)[O-])c3csc(N)n3)C(=O)N2C(C(=O)[O-])=C1C[N+]12CCC[C@H]1CN(C(=O)c1cc(O)c(O)c(Cl)c1)CC2.[Na+] (stereo partly shown) [Compound I-64],4,2,0.125,≤ 0.031
C[C@@H]1S[C@@H]2[C@H](NC(=O)/C(=N\OC(C)(C)C(=O)[O-])c3csc(N)n3)C(=O)N2C(C(=O)[O-])=C1C[N+]12CCC(CNC(=O)c3cc(O)c(O)c(F)c3)(CC1)CC2.[Na+] [Compound I-72],4,1,0.125,≤ 0.031
C[C@@H]1S[C@@H]2[C@H](NC(=O)/C(=N\OC(C)(C)C(=O)[O-])c3csc(N)n3)C(=O)N2C(C(=O)[O-])=C1C[N+]1(C)[C@@H]2CC[C@H]1C[C@@H](NC(=O)c1cc(O)c(O)c(F)c1)C2.[Na+] (stereo partly shown) [Compound I-71],2,0.5,0.25,≤ 0.031
C[C@@H]1S[C@@H]2[C@H](NC(=O)/C(=N\OC(C)(C)C(=O)[O-])c3csc(N)n3)C(=O)N2C(C(=O)[O-])=C1C[N@+]1(C)[C@@H]2CC[C@H]1C[C@@H](NC(=O)C(=O)c1cc(O)c(O)c(Cl)c1)C2.[Na+] [Compound I-12],4,1,0.25,≤ 0.031
C[C@@H]1S[C@@H]2[C@H](NC(=O)/C(=N\OC(C)(C)C(=O)[O-])c3csc(N)n3)C(=O)N2C(C(=O)[O-])=C1C[N+]12CCC(CNC(=O)c3cc(O)c(O)c(F)c3)(CC1)C2.[Na+] [Compound I-117],1,0.5,≤ 0.031,0.25
C[C@@H]1S[C@@H]2[C@H](NC(=O)/C(=N\OC(C)(C)C(=O)[O-])c3csc(N)n3)C(=O)N2C(C(=O)[O-])=C1C[N+]12CCC(CC1)N(C(=O)C(=O)c1ccc(O)c(O)c1Cl)CC2.[Na+] [Compound I-75],4,0.25,0.125,≤ 0.031
C[C@@H]1S[C@@H]2[C@H](NC(=O)/C(=N\O[C@@H](CC(=O)[O-])C(=O)[O-])c3csc(N)n3)C(=O)N2C(C(=O)[O-])=C1C[N@+]1(C)[C@@H]2CC[C@H]1C[C@@H](NC(=O)C(=O)c1cc(O)c(O)c(Cl)c1)C2.[Na+].[Na+] [Compound I-13],8,2,1,0.063
C[C@@H]1S[C@@H]2[C@H](NC(=O)/C(=N\OC(C)(C)C(=O)[O-])c3csc(N)n3)C(=O)N2C(C(=O)O)=C1C[N+]12CCC(CNN3C(=O)c4cc(O)c(O)cc4C3=O)(CC1)CC2 [Compound I-123],4,0.5,0.125,≤ 0.031
C[C@@H]1S[C@@H]2[C@H](NC(=O)/C(=N\OC(C)(C)C(=O)O)c3csc(N)n3)C(=O)N2C(C(=O)[O-])=C1C[N+]12CCC(Cn3ncc4cc(O)c(O)cc4c3=O)(CC1)CC2 [Compound I-124],2,0.5,0.125,≤ 0.031
C[C@@H]1S[C@@H]2[C@H](NC(=O)/C(=N\OC(C)(C)C(=O)[O-])c3csc(N)n3)C(=O)N2C(C(=O)O)=C1C[N+]12CCC(CNC(=O)/C(=N\OCC(=O)O)c3ccc(O)c(O)c3Cl)(CC1)CC2 [Compound I-98],4,0.5,0.063,≤ 0.031
"C[C@@H]1S[C@@H]2[C@H](NC(=O)/C(=N\OC(C)(C)C(=O)O)c3csc(N)n3)C(=O)N2C(C(=O)[O-])=C1C[N+]12CCC(CC1)N(C(=O)c1cn(C)c3cc(O)c(O)c(Cl)c3c1=O)CC2 [Compound I-160, (4S,6R,7R)-7-((Z)-2-(2-aminothiazol-4-yl)-2-(((2-carboxypropan-2-yl)oxy)imino)acetamido)-3-((4-(5-chloro-6,7-dihydroxy-1-methyl-4-oxo-1,4-dihydroquinoline-3-carbonyl)-1,4-diazabicyclo[3.2.2]nonan-1-ium-1-yl)methyl)-4-methyl-8-oxo-5-thia-1-azabicyclo[4.2.0]oct-2-ene-2-carboxylate]",0.5,0.25,≤ 0.031,0.063
C[C@@H]1S[C@@H]2[C@H](NC(=O)/C(=N\OC(C)(C)C(=O)[O-])c3csc(N)n3)C(=O)N2C(C(=O)O)=C1C[N@+]1(C)[C@@H]2CC[C@H]1C[C@@H](NC(=O)c1cn(C3CC3)c3cc(O)c(O)c(Cl)c3c1=O)C2 [Compound I-120],2,0.5,0.063,≤ 0.031
C[C@@H]1S[C@@H]2[C@H](NC(=O)/C(=N\OC(C)(C)C(=O)[O-])c3csc(N)n3)C(=O)N2C(C(=O)[O-])=C1C[N+]1(C)C[C@H]2CN(C(=O)c3cc(O)c(O)c(Cl)c3)C[C@H]2C1.[Na+] (stereo partly shown) [Compound I-63],–,1,1,≤ 0.031
C[C@@H]1S[C@@H]2[C@H](NC(=O)/C(=N\OC(C)(C)C(=O)[O-])c3csc(N)n3)C(=O)N2C(C(=O)[O-])=C1C[N+]12CCC(CNC(=O)c3cc(=O)c(O)c[nH]3)(CC1)CC2.[Na+] [Compound I-140],–,4,0.5,≤ 0.031
C[C@@H]1S[C@@H]2[C@H](NC(=O)/C(=N\OC(C)(C)C(=O)[O-])c3csc(N)n3)C(=O)N2C(C(=O)O)=C1C[N+]1(CCNC(=O)c2cc(=O)c(O)c[nH]2)CCCC1 [Compound I-130],–,–,8,≤ 0.031
C[C@@H]1S[C@@H]2[C@H](NC(=O)/C(=N\OC(C)(C)C(=O)[O-])c3csc(N)n3)C(=O)N2C(C(=O)[O-])=C1C[N+]1(CCn2[nH]c(=O)c3cc(O)c(O)cc3c2=O)CCCC1.[Na+] [Compound I-4],–,1,2,≤ 0.031
C[C@@H]1S[C@@H]2[C@H](NC(=O)/C(=N\O[C@@H](CC(=O)[O-])C(=O)[O-])c3csc(N)n3)C(=O)N2C(C(=O)[O-])=C1C[N+]12CCC(CNC(=O)C(=O)c3cc(O)c(O)c(Cl)c3)(CC1)CC2.[Na+].[Na+] [Compound I-15],16,4,1,–
